# Source: paper PMC8119466, “A screen of FDA-approved drugs identifies inhibitors of protein tyrosine phosphatase 4A3 (PTP4A3 or PRL-3)” (Scientific Reports, 2021)
# Counter-ions that a name gives are not always drawn. Like-named read-outs stand apart in the source and are kept apart here.
# Columns and labels:
# Assay type in all cases: biochemical
# recombinant PRL-3 = molecular target: T1, recombinant PRL-3 (Homo sapiens, UniProt O75365); experiment: In vitro phosphatase assay (DiFMUP hydrolysis), PRL-3; note: test concentration or dose not given here
# T1 construct: 6xHis (N, cleaved yes); made in house; host or cells: E. coli One Shot BL21 Star
# recombinant PRL-1 = molecular target: T2, recombinant PRL-1 (Homo sapiens, UniProt Q93096); experiment: In vitro phosphatase assay (DiFMUP hydrolysis), PRL-1; note: test concentration or dose not given here
# T2 construct: 6xHis (N, cleaved yes); made in house; host or cells: E. coli One Shot BL21 Star
# T2 sequence (Q93096 1-173): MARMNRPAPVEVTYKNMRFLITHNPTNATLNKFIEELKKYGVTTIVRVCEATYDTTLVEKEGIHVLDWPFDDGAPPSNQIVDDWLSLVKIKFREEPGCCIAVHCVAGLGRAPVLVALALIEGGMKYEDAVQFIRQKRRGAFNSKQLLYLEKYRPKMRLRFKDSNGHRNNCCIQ
# recombinant PRL-2 = molecular target: T3, recombinant PRL-2 (Homo sapiens, UniProt Q12974); experiment: In vitro phosphatase assay (DiFMUP hydrolysis), PRL-2;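 note: PRL-2 activity read as DiFMUP hydrolysis after 20 min at room temperature with drug, enzyme first pre-reduced at 4 °C for 20 min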
# T3 construct: 6xHis (N, cleaved yes); made in house; host or cells: E. coli One Shot BL21 Star
# T3 sequence (Q12974 1-167): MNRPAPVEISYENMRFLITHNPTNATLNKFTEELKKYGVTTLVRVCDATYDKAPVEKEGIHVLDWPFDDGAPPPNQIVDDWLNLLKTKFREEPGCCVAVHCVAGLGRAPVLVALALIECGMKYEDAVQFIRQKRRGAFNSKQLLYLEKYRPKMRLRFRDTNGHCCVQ
# [1] = FDA-approved drug screen, compared to DMSO
# [2] = FDA-approved drug screen, activity compared to DMSO
# T1 sequence (O75365 whole entry): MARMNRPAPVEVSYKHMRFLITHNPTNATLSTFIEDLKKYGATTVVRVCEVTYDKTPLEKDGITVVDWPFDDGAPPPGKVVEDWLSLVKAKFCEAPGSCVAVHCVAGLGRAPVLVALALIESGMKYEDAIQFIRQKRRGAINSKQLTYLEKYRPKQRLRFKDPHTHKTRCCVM
Structure (SMILES),% Phosphatase Activity (compared to DMSO) PRL-3 (recombinant PRL-3; [1]) [%],% Phosphatase Activity (compared to DMSO) PRL-1 (recombinant PRL-1; [1]) [%],% Phosphatase Activity (compared to DMSO) PRL-2 (recombinant PRL-2; [1]) [%],other results
COc1cc2nc(N3CCN(C(=O)C4COc5ccccc5O4)CC3)nc(N)c2cc1OC (stereo not drawn) [Doxazosin Mesylate],305,441,528,–
CC#CCn1c(N2CCC[C@@H](N)C2)nc2c1c(=O)n(Cc1nc(C)c3ccccc3n1)c(=O)n2C [Linagliptin],100,115,131,–
CC[C@H](C)C(=O)O[C@H]1CCC=C2C=C[C@H](C)[C@H](CC[C@@H]3C[C@@H](O)CC(=O)O3)[C@H]21 [Mevastatin],71,88,89,–
Cc1ccc(C(=O)Nc2ccc(CN3CCN(C)CC3)c(C(F)(F)F)c2)cc1C#Cc1cnc2cccnn12 [Ponatinib (AP24534)],319,396,417,–
COc1nc(N)nc2c1ncn2[C@@H]1O[C@H](CO)[C@@H](O)[C@@H]1O [Nelarabine],–,–,–,% Phosphatase Activity (compared to DMSO) PRL-3 (recombinant PRL-3): 79%; % Phosphatase Activity (compared to DMSO) PRL-1 (recombinant PRL-1): 93%; % Phosphatase Activity (compared to DMSO) PRL-2 (recombinant PRL-2): 108%
"COc1cc2c(cc1Cc1cccc(Cl)c1F)c(=O)c(C(=O)O)cn2[C@H](CO)C(C)C [Elvitegravir (GS-9137, JTK-303)]",81,82,84,–
C[C@]12CC[C@@H]3c4ccc(OC(=O)c5ccccc5)cc4CC[C@H]3[C@@H]1CC[C@@H]2O [Estradiol Benzoate],91,110,117,–
NC[C@@H]1O[C@H](O[C@H]2[C@@H](O)[C@H](O[C@@H]3[C@@H](O)[C@H](N)C[C@H](N)[C@H]3O[C@H]3O[C@H](CN)[C@@H](O)[C@H](O)[C@H]3N)O[C@@H]2CO)[C@H](N)[C@@H](O)[C@@H]1O.O=S(=O)(O)O [Neomycin sulfate],86,98,103,–
C[C@@H](O[C@H]1OCCN(Cc2n[nH]c(=O)[nH]2)[C@H]1c1ccc(F)cc1)c1cc(C(F)(F)F)cc(C(F)(F)F)c1 [Aprepitant],80,104,94,–
CCCCOc1ccc(OCCCN2CCOCC2)cc1 [Pramoxine HCl],74,82,91,–
COC(=O)Nc1nc2ccc([S+]([O-])c3ccccc3)cc2[nH]1 (stereo not drawn) [Oxfendazole],92,84,102,–
Cc1nnc(C(=O)NC(C)(C)c2nc(C(=O)NCc3ccc(F)cc3)c(O)c(=O)n2C)o1 [Raltegravir (MK-0518)],90,96,105,–
CO/N=C(\C(=O)N[C@@H]1C(=O)N2C(C(=O)O)=C(COC(N)=O)CS[C@H]12)c1ccco1 [Cefuroxime sodium],82,96,96,–
Cn1cnc2c(F)c(Nc3ccc(Br)cc3Cl)c(C(=O)NOCCO)cc21 [Selumetinib (AZD6244)],87,92,93,–
CC(C)NCC(O)c1ccc(NS(C)(=O)=O)cc1 (stereo not drawn) [Sotalol],–,–,–,% Phosphatase Activity (compared to DMSO) PRL-3 (recombinant PRL-3; [2]): 78%; % Phosphatase Activity (compared to DMSO) PRL-1 (recombinant PRL-1; [2]): 98%; % Phosphatase Activity (compared to DMSO) PRL-2 (recombinant PRL-2; [2]): 97%
CC(C)c1c(C(=O)Nc2ccccc2)c(-c2ccccc2)c(-c2ccc(F)cc2)n1CC[C@@H](O)C[C@@H](O)CC(=O)O [Atorvastatin Calcium],74,100,87,–
O=C(O)CCNC(=O)c1ccccc1 [Betamipron],75,98,95,–

Structure (SMILES),% Phosphatase Activity (compared to DMSO) PRL-3 (recombinant PRL-3; [1]) [%],% Phosphatase Activity (compared to DMSO) PRL-1 (recombinant PRL-1; [1]) [%],% Phosphatase Activity (compared to DMSO) PRL-2 (recombinant PRL-2; [1]) [%],other results
Cc1cccc(C(C)c2cnc[nH]2)c1C (stereo not drawn) [Medetomidine HCl],–,–,–,% Phosphatase Activity (compared to DMSO) PRL-3 (recombinant PRL-3): 99%; % Phosphatase Activity (compared to DMSO) PRL-1 (recombinant PRL-1): 109%; % Phosphatase Activity (compared to DMSO) PRL-2 (recombinant PRL-2): 113%
CCc1oc2ccccc2c1C(=O)c1cc(Br)c(O)c(Br)c1 [Benzbromarone],51,63,56,–
CC(C)OC(=O)[C@H](C)N[P@](=O)(CO[C@H](C)Cn1cnc2c(N)ncnc21)Oc1ccccc1 [Tenofovir Alafenamide (GS-7340)],–,–,–,% Phosphatase Activity (compared to DMSO) PRL-3 (recombinant PRL-3): 91%; % Phosphatase Activity (compared to DMSO) PRL-1 (recombinant PRL-1): 94%; % Phosphatase Activity (compared to DMSO) PRL-2 (recombinant PRL-2): 74%
Cc1ccc(Nc2nccc(N(C)c3ccc4c(C)n(C)nc4c3)n2)cc1S(N)(=O)=O.Cl [Pazopanib HCl],82,86,83,–
CCCOc1ccc(C(=O)OCCN(CC)CC)cc1N [Proparacaine HCl],96,78,108,–
O=C1CN2Cc3c(ccc(Cl)c3Cl)N=C2N1 [Anagrelide HCl],80,93,91,–
COC(=O)N/N=C/c1c[n+]([O-])c2ccccc2[n+]1[O-] [Carbadox],99,96,103,–
COc1ccc(O)cc1 [Mequinol],85,104,120,–
[H]/N=C(/N)N/C(=N/[H])NCCc1ccccc1 [Phenformin HCl],89,114,120,–
Oc1c(I)cc(I)c2cccnc12 [Diiodohydroxyquinoline],81,89,108,–
C=CCNC(N)=S [Allylthiourea],86,106,121,–
CCCCC(=O)N(Cc1ccc(-c2ccccc2-c2nnn[nH]2)cc1)[C@H](C(=O)O)C(C)C [Valsartan],–,–,–,% Phosphatase Activity (compared to DMSO) PRL-3 (recombinant PRL-3; [2]): 101%; % Phosphatase Activity (compared to DMSO) PRL-1 (recombinant PRL-1; [2]): 86%; % Phosphatase Activity (compared to DMSO) PRL-2 (recombinant PRL-2; [2]): 115%
CCN1CCN(Cc2ccc(Nc3ncc(F)c(-c4cc(F)c5nc(C)n(C(C)C)c5c4)n3)nc2)CC1 [LY2835219],99,92,79,–
CCCNC(C)C(=O)Nc1c(C)csc1C(=O)OC (stereo not drawn) [Articaine HCl],84,110,109,–
[H]/N=C(\N/C(=N/[H])NCCCCCCNC(=N)NC(=N)Nc1ccc(Cl)cc1)Nc1ccc(Cl)cc1 [Chlorhexidine HCl],118,97,112,–
CN(Cc1cnc2nc(N)nc(N)c2n1)c1ccc(C(=O)N[C@@H](CCC(=O)O)C(=O)O)cc1 [Methotrexate],70,92,83,–
